Source: PMC6511888, “Synthesis, Biological Evaluation, and Molecular Modeling Studies of New Thiadiazole Derivatives as Potent P2X7 Receptor Inhibitors” (Frontiers in Chemistry, 2019)

Experiments:
P2X1R = target: T1, P2X1R (Mus musculus, UniProt P51576); experiment: β,γ-meATP-induced intracellular Ca2+ mobilization in J774 cells; format: cell-based; conditions: 100 μM
T1 construct: endogenous in cells; host or cells: J774 cells
T1 sequence (P51576 1-399): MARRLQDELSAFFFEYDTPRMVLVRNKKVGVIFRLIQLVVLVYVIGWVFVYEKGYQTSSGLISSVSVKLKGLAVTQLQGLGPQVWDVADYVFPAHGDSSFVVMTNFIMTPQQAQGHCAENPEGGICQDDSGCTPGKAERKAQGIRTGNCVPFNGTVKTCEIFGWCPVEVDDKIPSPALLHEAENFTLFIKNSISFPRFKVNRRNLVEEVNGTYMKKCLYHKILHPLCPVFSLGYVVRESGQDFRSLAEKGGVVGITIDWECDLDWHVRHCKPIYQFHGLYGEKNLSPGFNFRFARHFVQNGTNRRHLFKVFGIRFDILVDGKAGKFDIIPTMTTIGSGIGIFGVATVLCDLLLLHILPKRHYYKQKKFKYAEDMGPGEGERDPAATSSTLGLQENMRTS
Description: (§1) Mouse peritoneal macrophages, PC12 cells, J774 cells, and HEPG2 cells were analyzed by fluorescence microscopy to measure the intracellular Ca^2+ concentrations ([Ca^2+]i). Cells were incubated with 2 μM Fura-2-AM (Molecular Probes) for 30 min, and the [Ca^2+]i mobilization was measured in the F340/F380 ratios with a FlexStation 3 multimode microplate reader (Molecular Devices). Cells were plated in translucent 96-well plates (BD Falcon) for 15 min and then washed and incubated in a saline solution with 150 NaCl, 5 KCl, 1 MgCl2, 1 CaCl2, and 10 HEPES (pH 7.4) for 30 min before measurements of [Ca^2+]i. The Ca^2+ influx was induced by stimulating cells with P2 receptor agonists. P2 receptor antagonists were added 10 min before P2 receptor agonist addition. […] Ionomycin was considered a positive control, and the other recordings were normalized in relation to the AUC.

ATP-induced paw edema = ATP-induced paw edema in mice; format: in vivo, mouse; conditions: 9f 0.001–1 mg/kg intraperitoneally 1 h before ATP, edema measured after 30 min
Description: (§2) Our protocols using Swiss Webster mice 4–5 weeks old adhered to the Ethical Principles in Animal Experimentation adopted by the Brazilian College of Animal Experimentation and approved by the FIOCRUZ Research Ethics Committee (Faria et al., [2018]) (number LW-5814). Mouse paw edema was stimulated with carrageenan (300 μg/paw) saline suspension for 60 min or ATP (10 mg/paw) for 30 min. Treatment with diclofenac (100 μg/kg), oxidized ATP (100 μg/kg), and analog 9f (0.001–1 mg/kg) was intraperitoneally administered 60 min prior to the […] administration of carrageenan or ATP. A plethysmometer (UGO Basil, Italy) was used to measure the edema before inductor injection, and the relative paw edema increased after carrageenan or ATP action.

P2X7R = target: T2, P2X7R (Mus musculus, UniProt Q9Z1M0); experiment: Whole-cell patch clamp, ATP-induced ionic currents in peritoneal macrophages; format: cell-based; conditions: fixed 500 nM 9f; ATP 100 μM to 25 mM; whole-cell configuration
T2 construct: plated for 24 h before dye uptake assays, whole-cell patch clamp experiments, and IL-1β release assays; endogenous in cells; host or cells: mouse (Swiss Webster) peritoneal macrophages
T2 sequence (Q9Z1M0 1-595): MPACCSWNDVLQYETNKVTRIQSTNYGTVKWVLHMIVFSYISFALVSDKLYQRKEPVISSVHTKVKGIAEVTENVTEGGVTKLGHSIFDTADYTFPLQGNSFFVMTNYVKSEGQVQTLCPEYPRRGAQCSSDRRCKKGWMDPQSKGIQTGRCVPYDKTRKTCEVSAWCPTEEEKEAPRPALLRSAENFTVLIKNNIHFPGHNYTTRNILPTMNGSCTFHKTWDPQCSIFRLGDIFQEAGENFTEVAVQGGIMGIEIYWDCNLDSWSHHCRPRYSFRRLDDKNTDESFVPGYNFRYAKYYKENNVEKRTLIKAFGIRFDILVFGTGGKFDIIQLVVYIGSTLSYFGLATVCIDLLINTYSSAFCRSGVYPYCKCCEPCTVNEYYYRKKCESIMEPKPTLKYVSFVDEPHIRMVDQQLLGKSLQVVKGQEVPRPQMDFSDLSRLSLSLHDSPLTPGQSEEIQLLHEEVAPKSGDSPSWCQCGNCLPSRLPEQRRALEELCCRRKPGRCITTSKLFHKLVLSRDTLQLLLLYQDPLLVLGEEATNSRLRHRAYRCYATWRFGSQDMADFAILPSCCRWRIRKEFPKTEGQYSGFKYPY
Description: The whole-cell configuration was used in peritoneal macrophages as previously described (Faria et al., [2005]). All the experiments used bath and pipette solutions with a series resistance set as 6–11 MΩ. Ionic currents with amplitudes < 1,500 pA were not compensated; however, ionic currents above this level were compensated by 88%. The cell capacitance for peritoneal macrophages was (19 ± 1 pF; n = 86), and the recordings were obtained at a holding potential of −60 mV at 37°C.
The saline composition was as follows (in mM): 150 NaCl, 5 KCl, 1 MgCl2, 1 CaCl2, and 10 HEPES (pH 7.4) for the bath solution and 150 KCl, 5 NaCl, 1 MgCl2, 10 HEPES, and 0.1 EGTA (pH 7.4) for the pipette solution (Faria et al., [2018]).
[…] A perfusion chamber (RC-24 chamber, Warner Instrument Corp) operating at a rate of 1 ml/min was used in all experiments (Faria et al., [2018]).

[1] = system: carrageenan-induced paw edema; experiment: Carrageenan-induced paw edema in mice; format: in vivo, mouse; conditions: 9f 0.001–1 mg/kg intraperitoneally 1 h before carrageenan, edema measured after 60 min
Description: as §2

P2X3R = experiment: α,β-meATP-induced [Ca2+]i shift; format: cell-based; conditions: 100 μM
Description: as §1

With `CCOC(=O)c1cnn(-c2nnc(-c3ccccc3Cl)s2)c1N` [Compound 9f] the “Effect on β,γ-meATP-induced intracellular Ca2+ mobilization” value (P2X1R) was “did not reduce”, the ATP-induced paw edema (ATP-induced paw edema) was “dose-dependently decreased” and the “EC50 of the ATP dose–response curve with fixed inhibitor vs ATP alone” value (P2X7R) was “higher”. The Carrageenan-induced paw edema [1] was “dose-dependently decreased” and the “Effect on activity of P2X3R agonist α,β-meATP” value (P2X3R) was “did not reduce”.
